Assays:
Assay type in all cases: in vivo
[1] = tested on: impression of sweetness of a 5 wt % sucrose solution; experiment: Intensification of the impression of sweetness of a sugar solution, assessed by a panel of experts; conditions: for % intensification of the impression of sweetness: calculated from mean values with vs without test substance; for Impression of sweetness (1-10) with: scale 1 [not sweet] to 10 [extremely sweet]; for sweetness intensifying action (in words): residue at position C5 instead of C7, compared with compounds to be used according to the invention
Procedure: For quantifying the intensification of the impression of sweetness, the sweetness of a 5 wt % sucrose solution (consisting of 5 wt % sucrose in water) and of a sample that consisted of water, 5 wt % sucrose and a specified amount (i.e. that given below in each case) of test substance was determined by a panel of experts. The assessment was based on a scale from 1 [not sweet] to 10 [extremely sweet]. The intensification of the impression of sweetness (in %) was calculated from the respective mean values of the assessments of the sucrose solution and of the respective sample to be investigated containing the test substance. The test substances used were in each case a racemic mixture of the following compounds to be used according to the invention. […]

[2] = tested on: bitterness of a solution containing 500 ppm caffeine; experiment: Reduction of bitterness of a solution of bitter substance (caffeine), assessed by a panel of experts; conditions: 50 ppm test substance
Description: (§1) To quantify the reduction (i.e. the masking or decrease) of the impression of bitterness in a sample, the bitterness of a solution containing 500 ppm caffeine or 100 ppm naringin was compared by a panel of experts, in each case against a sample that contained 500 ppm caffeine or 100 ppm naringin and additionally the amount stated in each case of a substance to be assessed (with respect to capacity for reducing bitterness) (assessment scale: 1 [not bitter] through 10 [extremely bitter]). Evaluation, i.e. calculation of the reduction (in %) of the impression of bitterness, was based in each case on the mean values of the assessment of the panel of experts.

[3] = tested on: bitterness of a solution containing 100 ppm naringin; experiment: Reduction of bitterness of a solution of bitter substance (naringin), assessed by a panel of experts; conditions: 25 ppm test substance
Description: as §1

[4] = 50 ppm test substance in 5 wt % sucrose solution
[5] = 50 ppm test substance in water with 5 wt % sucrose
[6] = scale 1 [not bitter] through 10 [extremely bitter]

“(4S)-4-(4-Hydroxyphenyl)-7-methoxy-chroman-2-one (19) and (4R)-4-(4-hydroxyphenyl)-7-methoxy-chroman-2-one (20) [(19) + (20)]” was tested, and the “% intensification of the impression of sweetness” value (“% intensification” below) [1, 4] was 14% (p < 0.09), the “Impression of sweetness (1-10) with” value [1, 5] was 5.4 ± 1.1 and the “% reduction of the impression of bitterness” value ([2]; calculated from mean values) was 9.9%. The “Impression of bitterness (1-10) with” value [2, 6] was 3.6 ± 1.5.

For `COc1cc(OC)c2c(c1)OC(=O)C[C@H]2c1ccc(O)c(OC)c1` [(17) + (18), (4S)-4-(4-Hydroxy-3-methoxyphenyl)-5,7-dimethoxy-chroman-2-one (17) and (4R)-4-(4-hydroxy-3-methoxyphenyl)-5,7-dimethoxy-chroman-2-one (18)], the “% intensification” value [1, 4] was 37% (p < 0.002), the “Impression of sweetness (1-10) with” value [1, 5] was 7.1 ± 1.8 and the “% reduction of the impression of bitterness” value ([3]; calculated from mean values) was 9.9%. For the same molecule, the “Impression of bitterness (1-10) with” value [3, 6] was 4.8 ± 2.5.

`COc1cc([C@@H]2CC(=O)Oc3cc(O)cc(OC)c32)ccc1O` [(A) + (B), (4S)-7-Hydroxy-4-(4-hydroxy-3-methoxyphenyl)-5-methoxy-chroman-2-one (A) and (4R)-7-hydroxy-4-(4-hydroxy-3-methoxyphenyl)-5-methoxy-chroman-2-one (B)] was tested, and the “% intensification” value [1, 4] was 8% (p < 0.5) and the “Impression of sweetness (1-10) with” value [1, 5] was 5.8 ± 1.4.

`COc1cc(O)c2c(c1)OC(=O)C[C@H]2c1ccc(O)c(OC)c1` [(23) + (24), (4S)-5-Hydroxy-4-(4-hydroxy-3-methoxyphenyl)-7-methoxy-chroman-2-one (23) and (4R)-5-hydroxy-4-(4-hydroxy-3-methoxyphenyl)-7-methoxy-chroman-2-one (24)] was tested, and the “% intensification” value [1, 4] was 47% and the “Impression of sweetness (1-10) with” value [1, 5] was 7.6 ± 1.5.

In the case of `COc1cc([C@@H]2CC(=O)Oc3cc(O)cc(OC)c32)ccc1O` [(A), (4S)-7-Hydroxy-4-(4-hydroxy-3-methoxyphenyl)-5-methoxy-chroman-2-one], the “sweetness intensifying action (in words)” value [1] is reported as “much lower sweetness intensifying action”.

For `COc1cc([C@H]2CC(=O)Oc3cc(O)cc(OC)c32)ccc1O` [(B), (4R)-7-hydroxy-4-(4-hydroxy-3-methoxyphenyl)-5-methoxy-chroman-2-one], the “sweetness intensifying action (in words)” value [1] was “much lower sweetness intensifying action”.

For `CCCOc1ccc2c(c1)OC(=O)C[C@H]2c1ccc(O)cc1` [(11) + (12), (4S)-4-(4-Hydroxyphenyl)-7-propoxy-chroman-2-one (11) and (4R)-4-(4-hydroxyphenyl)-7-propoxy-chroman-2-one (12)], the “% intensification” value ([1]; 25 ppm test substance in 5 wt % sucrose solution) was 14% (p < 0.09) and the “Impression of sweetness (1-10) with” value ([1]; 25 ppm test substance in water with 5 wt % sucrose) was 6.6 ± 1.5.

For “(4S)-7-Methoxy-4-(4-methoxyphenyl)chroman-2-one (1) and (4R)-7-methoxy-4-(4-methoxyphenyl)chroman-2-one (2) [(1) + (2)]”, the “% intensification” value [1, 4] was 12% (p < 0.08) and the “Impression of sweetness (1-10) with” value [1, 5] was 5.4 ± 0.9.
